Results as given in patent US7468384B2, “Microbicidal composition” (Rohm and Haas Company, priority 2004, dated 2008).
Where two headings read alike, the source gives them in different places.

Legend:
Format in all cases: cell-based
[1] = system: Escherichia coli (E. coli—ATCC #8739); assay: Synergy test, microtiter plate high resolution MIC assay, bacterium; conditions: Escherichia coli, ATCC8739, 24 h, read-out: MIC of component acting alone (QA / QB)
How it was run: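 High-resolution MICs were found by adding microbicide to one microtitre column and making ten-fold dilutions with an automated liquid handler, giving endpoints from 2 ppm to 10,000 ppm active ingredient. The MIC is the lowest concentration that prevents growth. E. coli 8739, at roughly 5×10^6 cells per mL, grew in glucose/yeast-extract-supplemented minimal salt medium (M9GY). Values above one indicate antagonism.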

[2] = system: Pseudomonas aeruginosa (P. aeruginosa—ATCC #15442); assay: as above; conditions: for MIC: Pseudomonas aeruginosa
How it was run: (§1)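 Values derive from Kull synergy index (Qa/QA + Qb/QB, ppm MIC endpoints, alone vs in mixture). Endpoints from high-resolution microtiter MICs spanning 2–10,000 ppm; bacterium ~5×10^6/mL in TSB or M9GY, yeast and mold 5×10^5/mL in PDB.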

[3] = system: Aspergillus niger (A. niger—ATCC 16404); assay: Synergy test, microtiter plate high resolution MIC assay, mold; conditions: for MIC: Aspergillus niger; for SI (calculated synergy index): A. niger 16404, PDB
How it was run: as §1

[4] = system: Candida albicans (C. albicans—ATCC 10231); assay: Synergy test, microtiter plate high resolution MIC assay, yeast; conditions: for MIC: Candida albicans
How it was run: as §1

Cn1sccc1=O [2-methyl-3-isothiazolone, 2-methyl-4-isothiazolin-3-one]
MIC [1]: 30 µg/mL | MIC of component acting alone (QA / QB) ([2]; P. aeruginosa 15442, M9GY, 48 hours): 30 ppm | MIC ([2]; ATCC15442, 24 h, read-out: MIC of component acting alone (QA / QB), P. aeruginosa 15442, TSB, 24 hours): 50 µg/mL | MIC ([2]; ATCC15442, 48 h, read-out: MIC of component acting alone (QA / QB), P. aeruginosa 15442, M9GY, 48 hours): 20 µg/mL | MIC ([2]; ATCC15442, 48 h, read-out: MIC of component acting alone (QA / QB), P. aeruginosa 15442, TSB, 48 hours): 60 µg/mL | MIC ([2]; ATCC15442, 48 h, read-out: Qa: end-point activity (MIC) of MI in the mixture (MI alone, QA, where Qb = 0), Table 5, P. aeruginosa 15442, M9GY, 48 hours, B = Linoleamidopropyl PG-dimonium chloride phosphate): 30 µg/mL | MIC ([2]; ATCC15442, 48 h, read-out: Qa: end-point activity (MIC) of MI in the mixture (MI alone, QA, where Qb = 0), Table 5, P. aeruginosa 15442, TSB, 48 hours, B = Linoleamidopropyl PG-dimonium chloride phosphate): 80 µg/mL | MIC ([2]; ATCC15442, 48 h, read-out: Qa: end-point activity (MIC) of MI in the mixture (MI alone, QA, where Qb = 0), Table 6, P. aeruginosa 15442, TSB, 48 hours, B = Cocamidopropyl PG-dimonium chloride phosphate): 80 µg/mL | MIC ([2]; ATCC15442, 72 h, read-out: MIC of component acting alone (QA / QB), P. aeruginosa 15442, TSB, 72 hours): 70 µg/mL | MIC ([2]; ATCC15442, 72 h, read-out: Qa: end-point activity (MIC) of MI in the mixture (MI alone, QA, where Qb = 0), Table 6, P. aeruginosa 15442, M9GY, 72 hours, B = Cocamidopropyl PG-dimonium chloride phosphate): 30 µg/mL | SI (calculated synergy index) ([2]; Table 5, P. aeruginosa 15442, M9GY, 48 hours): 1.00 | SI (calculated synergy index) ([2]; Table 5, P. aeruginosa 15442, TSB, 48 hours): 1.00 | SI (calculated synergy index) ([2]; Table 6, P. aeruginosa 15442, M9GY, 72 hours): 1.00 | SI (calculated synergy index) ([2]; Table 6, P. aeruginosa 15442, TSB, 48 hours): 1.00 | MIC ([3]; ATCC16404, 96 h, read-out: MIC of component acting alone (QA / QB)): 400 µg/mL | MIC ([3]; ATCC16404, 96 h, read-out: Qa: end-point activity (MIC) of MI in the mixture (MI alone, QA, where Qb = 0)): 400 µg/mL | MIC ([3]; ATCC16404, 168 h, read-out: MIC of component acting alone (QA / QB)): 500 µg/mL | MIC ([3]; ATCC16404, 168 h, read-out: Qa: end-point activity (MIC) of MI in the mixture (MI alone, QA, where Qb = 0)): 400 µg/mL | SI (calculated synergy index) ([3]; Table 5, 7 days): 1.00 | SI (calculated synergy index) ([3]; Table 6, 4 days): 1.00 | MIC ([4]; ATCC10231, 24 h, read-out: MIC of component acting alone (QA / QB)): 200 µg/mL | MIC ([4]; ATCC10231, 24 h, read-out: Qa: end-point activity (MIC) of MI in the mixture (MI alone, QA, where Qb = 0)): 125 µg/mL | MIC ([4]; ATCC10231, 48 h, read-out: MIC of component acting alone (QA / QB)): 200 µg/mL | MIC ([4]; ATCC10231, 72 h, read-out: MIC of component acting alone (QA / QB)): 200 µg/mL | SI (calculated synergy index) ([4]; Table 5, C. albicans 10231, PDB, 24 hours): 1.00 | SI (calculated synergy index) ([4]; Table 6, C. albicans 10231, PDB, 24 hours): 1.00 | Qa: end-point activity (MIC) of MI in the mixture (MI alone, QA, where Qb = 0) ([4]; Table 6, C. albicans 10231, PDB, 24 hours, B = Cocamidopropyl PG-dimonium chloride phosphate): 125 ppm
